Test results reported in US20050148553A1, “Use of tigecycline, alone, or in combination with rifampin to treat osteomyelitis and/or septic arthritis” (priority 2003, published 2005).
Several values for one entry are separate records, joined by “and”; a condition that tells them apart may be missing. Identical values can stand only once. Like-named read-outs stand apart in the source and are kept apart here.

What was measured:
[1] = tested on: methicillin-resistant S. aureus
Method: Preparation of the Infective Media: S. aureus was incubated overnight in Mueller Hinton Broth (Difco Laboratories, Detroit, Mich.) medium spiked with 40 μg/ml oxacillin, at 37° C. The bacterial concentration of the culture was adjusted to 10^7 CFU's/ml.
Rabbit Infection Procedure: New Zealand white rabbits (Ray Nicholl's Rabbitry, Lumberton, Tex.), eight to 12 weeks old and weighing 2.0 to 3.5 kg, were utilized for the study. After anesthesia was given, an 18-gauge needle was inserted percutaneously through the lateral aspect of the left tibial metaphysis into the intramedullary cavity. Next, 0.15 ml of 5% sodium morrhuate (American Regent Laboratories, Inc., Shirley, N.Y.), 0.1 ml of S. aureus (10^7 CFU/ml), and 0.2 ml of sterile, normal saline, 0.9%, were injected sequentially.
Group 1 (control group): infected but left untreated for the duration of the study. Group 2: rabbits were treated for 4 weeks with subcutaneous vancomycin at 30 mg/kg twice daily. Group 3: rabbits were treated for 4 weeks with subcutaneous vancomycin at 30 mg/kg twice daily plus oral rifampin at 40 mg/kg twice daily in 0.5% methylcellulose. Group 4: rabbits were treated for 4 weeks with subcutaneous tigecycline at 14 mg/kg twice daily. Group 5: rabbits were treated for 4 weeks with subcutaneous tigecycline at the same dose as in the rabbits in Group 4, plus oral rifampin at 40 mg/kg twice daily in 0.5% methylcellulose. […] Group 6: rabbits were treated for 1 week with subcutaneous tigecycline at the same dose as in Group 4, but were sacrificed 3 hours after administration of the last dose. At that time, blood and infected bone samples were collected and tigecycline concentration was determined. Groups 1 to 5 were left untreated for 2 weeks after treatment phase of the experiment and sacrificed at 8 weeks after infection.
Radiographs of bilateral tibias were taken at initiation of therapy (2 weeks after infection), at the end of antibiotic therapy (6 weeks after infection), and at sacrifice (8 weeks after infection). Radiographs were scored according to a visual scale (Table 1) by three investigators, each blinded to the treatment group, and the grades were averaged.
After sacrifice, gross cultures were performed for right and left tibias. Quantitative counts of S. aureus, in CFUs per gram, of left tibial bone and marrow were determined for all study groups.
Culture Preparation: The bone marrow and the intramedullary canal of bilateral tibias were swabbed with sterile cotton tip applicators for gross cultures analysis of left tibias and quality assurance checks of right tibias. The inoculated applicator was streaked onto blood plates and then placed into 5 ml of sterile TSB. The plates and tubes were then incubated at 37° C. for 24 hours and growth and/or turbidity was recorded.
The bone marrow was placed into a sterile, 50 ml centrifuge tube and weighed. The bone fragments were broken into 0.5 cm^2 chips, placed into a sterile, 50 ml centrifuge tube, and the final product weighed. Normal sterile saline, 0.9%, was added in a 3 to 1 ratio (3 ml saline/gram of bone or marrow) and the suspensions were vortexed for 2 minutes. Six ten-fold dilutions of each suspension were prepared with sterile, normal saline, 0.9%. Twenty-microliter samples of each dilution, including the initial suspension, was plated, in triplicate, onto blood agar plates and incubated at 37° C. for 24 hours. CFUs were counted at the greatest dilution for each tibia sample.

[2] = Antibiotic levels in rabbit serum and bone by diffusion bioassay; type: in vivo, New Zealand white rabbits
Method: Normal NZW rabbit serum (Fisher Scientific) and normal, uninfected rabbit tibia bone were used to generate standard curves for tigecycline (Wyeth-Ayerst Research, Pearl River, N.Y.), vancomycin (Abbott Laboratories, Chicago, Ill.), and rifampin (Merrell Pharmaceuticals Inc. Kansas, Mo.). Bioassays were performed with each drug to generate the standard curves for antibiotic concentration in serum and/or tibial bone.
The organism used for the bioassay was Bacillus cereus ATCC11778. Serum standards were prepared using two-fold serial dilutions with either antibiotic to yield concentrations of 25 μg/ml to 0.20 μg/ml drug in Normal NZW rabbit serum. Bone eluate standards were prepared for tigecycline by thoroughly cleaning noninfected rabbit tibias with 70% ethanol in a sterilized fume hood. Each tibia was broken into small chips of approximately 0.5 cm^2 using a grinder. The chips were placed into a sterile, 50 ml conical centrifuge tube and weighed. One milliliter of sterile, 0.9% normal saline was added for each gram of bone chips. The solution was thoroughly vortexed for two minutes. The resulting bone eluate was allowed to shake at 180 rpm in a cold room at 4° C., for 12 hours. The samples were centrifuged at 4000 rpm for 3 minutes prior to assay, to pellet the chips.
The diameter of the zone of growth inhibition around each well was measured, in millimeters. A standard curve was generated for tigecycline concentration in both serum and bone eluate and for vancomycin in serum by plotting the known antibiotic concentration against its resulting zone of inhibition measurement. […]
Serum samples were stored at −70° C. until the bioassay was performed. […] The diameter of the zone of growth inhibition around each well was measured and concentrations of tigecycline were extrapolated from the standard curve.
Peak and trough levels of antibiotic were determined for Groups 2 and 4 at 1 hour (peak) and 12 hour (trough) after the initial antibiotic administration. Antibiotic concentrations were determined by means of a bioassay. […]

Mycobacterium abscessus = type: in vivo, human; conditions: vertebral osteomyelitis patient
Method: Debridement was accomplished after one year of infection with placement of hardware. […] The amikacin was later stopped due to renal damage. Linezolid and azithromycin were later added to the treatment regimen. The organism was determined to be resistant to moxifloxacin.
The patient presented later with a new vertebral osteomyelitis just above the site of the old infection. A biopsy was performed and it was determined that no additional debridement was needed. […] Tigecycline was administered up to MIC 0.25 micrograms/ml. The patient's white blood cell count was normal while hypogammaglobulinemia was present and lymphocytic function decreased. The patient had also been under treatment with IL-12, but IL-12 was held during antibiotic treatment.

Acinetobacter baumannii = test: Compassionate use study, osteomyelitis patient; type: in vivo, human; conditions: 50 mg every 12 or 24 hours for two months; within one month
Method: The patient was treated with meropenem and tobramycin. […] The patient was then treated with tigecycline for two months with either 50 mg every 12 hours or 50 mg every 24 hours.

[3] = Pharmacokinetics and tolerability of intravenous tigecycline in humans; type: in vivo, human
[4] = for ratio of AUC in tissue to AUC in plasma: bone, bone marrow, salivary gland, thyroid, spleen, kidney (each)
Method: Sprague-Dawley rats (18 males) were given carbon-14 tigecycline at a dosage of 3 mg/kg by 30-minute infusion. Concentrations or radioactivity were determined in tissues of 3 rats/time point at the end of the infusion and at 1, 8, 24, 72, and 168 hours after the end of infusion.

[5] = average grade, t=14 versus t=56 days
[6] = individual rabbits, left tibia, 8 weeks after infection

Which “radiographic improvement (grade)” value [1, 5] does the source give for `CN(C)c1cc(NC(=O)CNC(C)(C)C)c(O)c2c1C[C@H]1C[C@H]3[C@H](N(C)C)C(O)=C(C(N)=O)C(=O)[C@@]3(O)C(O)=C1C2=O` [Tigecycline] here?
The value was 0.9+/−0.1.

What about the “radiographic improvement (percent)” value [1, 5] of the same molecule?
Its value is 40.9%.

What about the “rabbits/samples positive for MRSA in bone” value ([1]; bone cultures at sacrifice) of the same molecule?
The value was 1 out of 10 and one rabbit of 10.

What about the “proportion of positive cultures in marrow” value ([1]; compared with 0.33 (5/15) in control group) of the same molecule?
Its value is 0.

And the “bacterial outcome in bone and marrow, in words” value ([1]; end of study, MRSA infected rabbits)?
The value was “lower colony forming units in bone and marrow”.

And the “Counts (CFU/gm) Bone” value [1, 6]?
The value was 178.6 CFU/gm and 0 CFU/gm (9×).

What about the “Counts (CFU/gm) Marrow” value [1, 6] of the same molecule?
Its value is 0 CFU/gm.

What about the “rabbits infected in bone marrow” value ([1]; marrow cultures at sacrifice) of the same molecule?
The value was “no infection”.

And the “average radiographic grade versus control group” value ([1]; t=56 days, p<0.05)?
The value was “significantly lower”.

And the “average bacterial concentration of the group” value ([1]; tibia bone)?
Its value is 20 CFU/gram bone.

What about the concentration at 12 h ([2]; New Zealand white, rabbit, serum, subcutaneous, uninfected rabbits, 14 mg/kg twice daily, read-out: serum level at 12 hour (trough)) of the same molecule?
Its concentration at 12 h is over 0.2 µg/mL.

And the “antibiotic serum levels (peaks and troughs)” value ([2]; infected rabbits, tigecycline 14 mg/kg, vancomycin 30 mg/kg twice daily)?
Its value is “above minimum inhibitory concentrations”.

What about the clinical outcome (Mycobacterium abscessus) of the same molecule?
The clinical outcome was “doing well a year after the treatment”.

And the “clinical outcome (MRI)” value (Acinetobacter baumannii)?
The value was “resolution of the osteomyelitis”.

And the half-life ([3]; human, in vivo, intravenous, humans)?
Its half-life is 40 to 60 h.

What about the Vd ([3]; human, in vivo, intravenous, humans, read-out: volume of distribution at steady state) of the same molecule?
The Vd was 7 to 14 L/kg.

And the dose tolerated ([3]; one-hour infusion, human subjects)?
The dose tolerated was “up to 100 mg”.

And the “dose resulting in gastrointestinal intolerance (nausea and vomiting) in all subjects” value ([3]; twice daily over nine days, 200 ml infusion over one hour, fed)?
The value was at least 75 mg.

What about the dose tolerated ([3]; twice daily, 200 ml infusion over one hour) of the same molecule?
The dose tolerated was 25 to 50 mg.

For `CN(C)c1cc(NC(=O)CNC(C)(C)C)c(O)c2c1C[C@H]1C[C@H]3[C@H](N(C)C)C(O)=C(C(N)=O)C(=O)[C@@]3(O)C(O)=C1C2=O` [[^14C]-Tigecycline], which “ratio of AUC in tissue to AUC in plasma” value [4] is on record?
The value was “greater than 10”.

And the “ratio of AUC in tissue to AUC in plasma” value ([4]; listed as carbon-14 tigecycline)?
Its value is over 10.

And the “ratio of AUC in lung to AUC in plasma” value ([4]; lung)?
The value was 4.4.
